Measured values published in patent US20170190671A1, “BIS(ARYL)CATECHOL DERIVATIVES AS HERBICIDES” (E I DU PONT DE NEMOURS AND COMPANY, priority 2014, published 2017).

Columns and labels:
Test in all cases: Test C postemergence
Format in all cases: in vivo
[1] = tested on: barnyardgrass (Echinochloa crus-galli); details: Echinochloa crus-galli, post-emergence, Postemergence, scale 0 to 100, read-out: Plant response rating, Barnyardgrass
Outline: (§1)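 Visual ratings (0 none to 100 complete control) were made 13 to 15 days after treatment, relative to controls. Test chemicals, formulated in a non-phytotoxic solvent mixture with surfactant, were applied in the greenhouse preemergence to seeded loam-sand soil or postemergence to plants 2 to 18 cm tall.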

[2] = tested on: blackgrass (Alopecurus myosuroides); details: Alopecurus myosuroides, post-emergence, 336 h, Postemergence, scale 0 to 100, read-out: Plant response rating, Blackgrass
Outline: as §1

[3] = tested on: chickweed (common chickweed, Stellaria media); details: Stellaria media, post-emergence, Postemergence, scale 0 to 100, read-out: Plant response rating, Chickweed
Outline: as §1

[4] = tested on: yellow nutsedge (Cyperus esculentus); details: Cyperus, post-emergence, 336 h, Postemergence, scale 0 to 100, read-out: Plant response rating, Nutsedge, Yellow
Outline: as §1

[5] = tested on: winter wheat (Triticum aestivum); details: Triticum aestivum, post-emergence, 336 h, Postemergence, scale 0 to 100, read-out: Plant response rating, Wheat
Outline: as §1

soybean (Glycine max) = details: Glycine max, post-emergence, Postemergence, scale 0 to 100, read-out: Plant response rating, Soybean
Outline: as §1

[6] = tested on: ragweed (common ragweed, Ambrosia elatior); details: Ambrosia artemisiifolia, post-emergence, 336 h, Postemergence, scale 0 to 100, read-out: Plant response rating, Ragweed
Outline: as §1

[7] = tested on: johnsongrass (Sorghum halepense); details: Sorghum halepense, post-emergence, 336 h, Postemergence, scale 0 to 100, read-out: Plant response rating, Johnsongrass
Outline: as §1

[8] = tested on: large (Lg) crabgrass (Digitaria sanguinalis); details: Digitaria sanguinalis, post-emergence, 336 h, Postemergence, scale 0 to 100, read-out: Plant response rating, Crabgrass, Large
Outline: as §1

[9] = tested on: galium (catchweed bedstraw, Galium aparine); details: Galium, post-emergence, 336 h, Postemergence, scale 0 to 100, read-out: Plant response rating, Galium
Outline: as §1

[10] = tested on: giant foxtail (Setaria faberii); details: Setaria faberi, post-emergence, 336 h, Postemergence, scale 0 to 100, read-out: Plant response rating, Foxtail, Giant
Outline: as §1

[11] = tested on: pigweed (Amaranthus retroflexus); details: Amaranthus retroflexus, post-emergence, 336 h, Postemergence, scale 0 to 100, read-out: Plant response rating, Pigweed
Outline: as §1

corn (Zea mays) = details: Zea mays, post-emergence, 336 h, Postemergence, scale 0 to 100
Outline: as §1

[12] = tested on: morningglory (Ipomoea coccinea); details: Ipomoea, post-emergence, 336 h, Postemergence, scale 0 to 100, read-out: Plant response rating, Morningglory
Outline: as §1

[13] = tested on: velvetleaf (Abutilon theophrasti); details: Abutilon theophrasti, post-emergence, Postemergence, scale 0 to 100, read-out: Plant response rating, Velvetleaf
Outline: as §1

[14] = tested on: Italian ryegrass (Lolium multiflorum); details: Lolium multiflorum, post-emergence, 336 h, Postemergence, scale 0 to 100, read-out: Plant response rating, Ryegrass, Italian
Outline: as §1

[15] = tested on: oilseed rape (Brassica napus); details: Brassica napus, post-emergence, Postemergence, scale 0 to 100, read-out: Plant response rating, Oilseed Rape
Outline: as §1

[16] = tested on: lambsquarters (Chenopodium album); details: Chenopodium album, post-emergence, 336 h, Postemergence, scale 0 to 100, read-out: Plant response rating, Lambsquarters
Outline: as §1

Fc1cccc(Oc2ncc(Cl)cn2)c1Oc1ccc(Cl)nc1 [Compound 20]
pest or weed control at 31 g/ha ([1]; 31 g ai/ha): 5%
pest or weed control at 62 g/ha ([1]; 62 g ai/ha): 5%
pest or weed control at 125 g/ha ([1]; 125 g ai/ha): 10%
pest or weed control at 250 g/ha ([1]; 250 g ai/ha): 10%
pest or weed control at 31 g/ha ([2]; 31 g ai/ha): 5%
pest or weed control at 62 g/ha ([2]; 62 g ai/ha): 10%
pest or weed control at 125 g/ha ([2]; 125 g ai/ha): 5%
pest or weed control at 250 g/ha ([2]; 250 g ai/ha): 15%
pest or weed control at 31 g/ha ([3]; 31 g ai/ha): 35%
pest or weed control at 62 g/ha ([3]; 62 g ai/ha): 40%
pest or weed control at 125 g/ha ([3]; 125 g ai/ha): 45%
pest or weed control at 250 g/ha ([3]; 250 g ai/ha): 80%
pest or weed control at 31 g/ha ([4]; 31 g ai/ha): 0%
pest or weed control at 62 g/ha ([4]; 62 g ai/ha): 5%
pest or weed control at 125 g/ha ([4]; 125 g ai/ha): 10%
pest or weed control at 250 g/ha ([4]; 250 g ai/ha): 10%
plant injury at 31 g/ha ([5]; 31 g ai/ha): 0%
plant injury at 62 g/ha ([5]; 62 g ai/ha): 0%
plant injury at 125 g/ha ([5]; 125 g ai/ha): 5%
plant injury at 250 g/ha ([5]; 250 g ai/ha): 5%
plant injury at 31 g/ha (soybean (Glycine max); 31 g ai/ha): 25%
plant injury at 62 g/ha (soybean (Glycine max); 62 g ai/ha): 70%
plant injury at 125 g/ha (soybean (Glycine max); 125 g ai/ha): 65%
plant injury at 250 g/ha (soybean (Glycine max); 250 g ai/ha): 65%
pest or weed control at 31 g/ha ([6]; 31 g ai/ha): 20%
pest or weed control at 62 g/ha ([6]; 62 g ai/ha): 20%
pest or weed control at 125 g/ha ([6]; 125 g ai/ha): 45%
pest or weed control at 250 g/ha ([6]; 250 g ai/ha): 60%
pest or weed control at 31 g/ha ([7]; 31 g ai/ha): 5%
pest or weed control at 62 g/ha ([7]; 62 g ai/ha): 5%
pest or weed control at 125 g/ha ([7]; 125 g ai/ha): 5%
pest or weed control at 250 g/ha ([7]; 250 g ai/ha): 5%
pest or weed control at 31 g/ha ([8]; 31 g ai/ha): 5%
pest or weed control at 62 g/ha ([8]; 62 g ai/ha): 5%
pest or weed control at 125 g/ha ([8]; 125 g ai/ha): 10%
pest or weed control at 250 g/ha ([8]; 250 g ai/ha): 20%
pest or weed control at 31 g/ha ([9]; 31 g ai/ha): 50%
pest or weed control at 62 g/ha ([9]; 62 g ai/ha): 50%
pest or weed control at 125 g/ha ([9]; 125 g ai/ha): 70%
pest or weed control at 250 g/ha ([9]; 250 g ai/ha): 95%
pest or weed control at 31 g/ha ([10]; 31 g ai/ha): 15%
pest or weed control at 62 g/ha ([10]; 62 g ai/ha): 20%
pest or weed control at 125 g/ha ([10]; 125 g ai/ha): 15%
pest or weed control at 250 g/ha ([10]; 250 g ai/ha): 15%
pest or weed control at 31 g/ha ([11]; 31 g ai/ha): 75%
pest or weed control at 62 g/ha ([11]; 62 g ai/ha): 80%
pest or weed control at 125 g/ha ([11]; 125 g ai/ha): 90%
pest or weed control at 250 g/ha ([11]; 250 g ai/ha): 98%
Corn plant response rating (crop injury, 0 = no effect, 100 = complete kill) at 31 g/ha (corn (Zea mays); 31 g ai/ha): 5%
Corn plant response rating (crop injury, 0 = no effect, 100 = complete kill) at 62 g/ha (corn (Zea mays); 62 g ai/ha): 15%
Corn plant response rating (crop injury, 0 = no effect, 100 = complete kill) at 125 g/ha (corn (Zea mays); 125 g ai/ha): 20%
Corn plant response rating (crop injury, 0 = no effect, 100 = complete kill) at 250 g/ha (corn (Zea mays); 250 g ai/ha): 15%
pest or weed control at 31 g/ha ([12]; 31 g ai/ha): 30%
pest or weed control at 62 g/ha ([12]; 62 g ai/ha): 60%
pest or weed control at 125 g/ha ([12]; 125 g ai/ha): 65%
pest or weed control at 250 g/ha ([12]; 250 g ai/ha): 65%
pest or weed control at 31 g/ha ([13]; 31 g ai/ha): 35%
pest or weed control at 62 g/ha ([13]; 62 g ai/ha): 30%
pest or weed control at 125 g/ha ([13]; 125 g ai/ha): 35%
pest or weed control at 250 g/ha ([13]; 250 g ai/ha): 55%
pest or weed control at 31 g/ha ([14]; 31 g ai/ha): 5%
pest or weed control at 62 g/ha ([14]; 62 g ai/ha): 5%
pest or weed control at 125 g/ha ([14]; 125 g ai/ha): 10%
pest or weed control at 250 g/ha ([14]; 250 g ai/ha): 15%
plant injury at 31 g/ha ([15]; 31 g ai/ha): 15%
plant injury at 62 g/ha ([15]; 62 g ai/ha): 70%
plant injury at 125 g/ha ([15]; 125 g ai/ha): 80%
plant injury at 250 g/ha ([15]; 250 g ai/ha): 70%
pest or weed control at 31 g/ha ([16]; 31 g ai/ha): 85%
pest or weed control at 62 g/ha ([16]; 62 g ai/ha): 75%
pest or weed control at 125 g/ha ([16]; 125 g ai/ha): 75%
pest or weed control at 250 g/ha ([16]; 250 g ai/ha): 80%
